Experiments:
[1] = tested on: SW620 cells; assay: In vitro cell cycle analysis assay; format: cell-based, human; settings: 24 hours with compound, DNA content by FACS
Method: (d) In Vitro Cell Cycle Analysis Assay
This assay determines the ability of a test compound to arrest cells in specific phases of the cell cycle. Many different mammalian cell lines could be used in this assay and SW620 cells are included here as an example. SW620 cells were seeded at 7×10^5 cells per T25 flask (Costar) in 5 ml L-15 (5% FCS, 1% L-glutamine). Flasks were then incubated overnight in a humidified 37° C. incubator with 5% CO2. The following day, 5 μl of L-15 (5% FCS, 1% L-glutamine) carrying the appropriate concentration of test compound solubilised in DMSO was added to the flask. A no compound control treatments was also included (0.5% DMSO). The cells were then incubated for a defined time (24 hours) with compound. […]
Each sample was then syringed 10 times using 21-guage needle. The samples were then transferred to LPS tubes and DNA content per cell analysed by Fluorescence activated cell sorting (FACS) using a FACScan flow cytometer (Becton Dickinson). Typically 30,000 events were counted and recorded using CellQuest v1.1 software (Verity Software). Cell cycle distribution of the population was calculated using Modfit software (Verity Software) and expressed as percentage of cells with 2N (G0/G1), 2N-4N (S phase) and with 4N (G2/M) DNA content.

[2] = molecular target: T1, Aurora-A (Homo sapiens, UniProt O14965); assay: In vitro Aurora-A kinase inhibition test; format: biochemical
T1 construct: 6 histidine residues, spacer region and rTEV protease cleavage site (pFastBac HTc) (N); made in house; host or cells: Spodoptera frugiperda Sf21 insect cells (baculovirus)
T1 sequence (O14965 1-403): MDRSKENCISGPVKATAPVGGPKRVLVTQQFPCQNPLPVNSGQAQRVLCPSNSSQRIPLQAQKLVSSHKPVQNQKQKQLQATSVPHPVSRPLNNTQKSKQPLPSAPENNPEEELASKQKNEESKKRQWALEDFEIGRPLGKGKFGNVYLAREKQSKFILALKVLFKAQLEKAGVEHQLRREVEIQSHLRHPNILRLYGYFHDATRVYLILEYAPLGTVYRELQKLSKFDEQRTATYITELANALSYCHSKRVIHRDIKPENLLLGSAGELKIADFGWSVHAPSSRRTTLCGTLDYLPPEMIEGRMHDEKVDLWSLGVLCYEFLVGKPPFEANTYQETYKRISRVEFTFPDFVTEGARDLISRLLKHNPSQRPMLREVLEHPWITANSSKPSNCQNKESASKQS

[3] = molecular target: T2, Aurora-B (Homo sapiens, UniProt Q96GD4); assay: In vitro Aurora-B kinase inhibition test; format: biochemical; settings: recombinant Aurora-B, [γ33P]ATP, peptide substrate, 60 minutes at room temperature; read-out: concentration giving 50% inhibition of enzyme activity
T2 construct: 6-histidine; made in house; host or cells: Spodoptera frugiperda Sf21 insect cells (baculovirus)
Source text: (b) In Vitro Aurora-B Kinase Inhibition Test
This assay determines the ability of a test compound to inhibit serine-threonine kinase activity. DNA encoding Aurora-B may be obtained by total gene synthesis or by cloning. This DNA may then be expressed in a suitable expression system to obtain polypeptide with serine-threonine kinase activity. In the case of Aurora-B, the coding sequence was isolated from cDNA by polymerase chain reaction (PCR) and cloned into the pFastBac system in a manner similar to that described above for Aurora-A (i.e. to direct expression of a 6-histidine tagged Aurora-B protein).
For the large scale expression of Aurora-B kinase activity, Sf21 insect cells were grown at 28° C. in TC100 medium supplemented with 10% foetal calf serum (Viralex) and 0.2% F68 Pluronic (Sigma) on a Wheaton roller rig at 3 r.p.m. When the cell density reached 1.2×10^6 cells ml^−1 they were infected with plaque-pure Aurora-B recombinant virus at a multiplicity of infection of 1 and harvested 48 hours later. All subsequent purification steps were performed at 4° C. […]

[4] = tested on: SW620; assay: In vitro cell proliferation assay (BrdU incorporation); format: cell-based; settings: Homo sapiens, SW-620; SW620, 48 hours with compound, 2 hour BrdU labelling; read-out: active at (concentration giving 50% inhibition of BrdU incorporation)
Source text: (c) In Vitro Cell Proliferation Assay
This and other assays can be used to determine the ability of a test compound to inhibit the growth of adherent mammalian cell lines, for example the human tumour cell line SW620 (ATCC CCL-227). This assay determines the ability of at test compound to inhibit the incorporation of the thymidine analogue, 5′-bromo-2′-deoxy-uridine (BrdU) into cellular DNA. SW620 or other adherent cells were typically seeded at 1×10^5 cells per well in L-15 media (GIBCO) plus 5% foetal calf serum, 1% L-glutamine (100 μl/well) in 96 well tissue culture treated 96 well plates (Costar) and allowed to adhere overnight. […] The optical density of the wells was then determined at 690 nm wavelength using a Titertek Multiscan plate reader. […]

T2 sequence (Q96GD4 whole entry): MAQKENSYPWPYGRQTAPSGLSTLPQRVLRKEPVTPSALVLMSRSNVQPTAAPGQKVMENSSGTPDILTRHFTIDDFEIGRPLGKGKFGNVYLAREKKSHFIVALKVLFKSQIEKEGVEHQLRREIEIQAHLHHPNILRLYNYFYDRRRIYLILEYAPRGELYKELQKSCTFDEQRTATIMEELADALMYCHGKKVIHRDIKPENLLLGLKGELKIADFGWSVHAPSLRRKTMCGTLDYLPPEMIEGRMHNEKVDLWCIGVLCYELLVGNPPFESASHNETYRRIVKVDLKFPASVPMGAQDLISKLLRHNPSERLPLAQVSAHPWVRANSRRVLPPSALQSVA

## COc1cc2c(Nc3ncc(CC(=O)Nc4cccc(F)c4)s3)ncnc2cc1OCCCN1CCC[C@@H]1COP(=O)(O)O [Compound 2, ((2R)-1-(3-((4-((5-(2-((3-fluorophenyl)amino)-2-oxoethyl)-1,3-thiazol-2-yl)amino)-6-methoxyquinazolin-7-yl)oxy)propyl)pyrrolidin-2-yl)methyl dihydrogen phosphate]
[1]
  active at (cell cycle analysis, arrest of cells in specific phases): 20 nM
[2]
  IC50: 10.2 nM
[3]
  IC50: 9 nM
[4]
  IC50: 6 nM
